Results as given in patent US20190211317A1, “PEPTIDES AND NANOPARTICLES FOR INTRACELLULAR DELIVERY OF GENOME-EDITING MOLECULES” (Aadigen, LLC, priority 2016, published 2019).
Where “and” joins values, the source holds several entries; their conditions need not be identical. Equal entries are not always repeated.

Tests used:
primary human T cells = assay: CAS9 protein expression in primary human T cells after CAS9 mRNA or plasmid delivery (ELISA); type: cell-based; settings: day 3
Experimental: T cells were isolated from PBMCs using anti-CD3/anti-CD28 antibodies bound to paramagnetic beads (Dynabeads ClinExVivo CD3/CD28, Invitrogen) at a ratio of 3:1 (beads:cells). The cells and beads were co-incubated for 2 hours at room temperature and CD3^+ cell enrichment was performed using Dynal ClinExVIVO MPC magnet (Thermo Fisher). The anti-CD3/anti-CD28 paramagnetic beads were removed, washed and concentrated. Cells in the CD3^+ fraction were resuspended in activation media at a concentration of 1×10^6 cells/ml with AIM-V medium (Thermo Fishers) supplemented with 10% fetal calf serum, 300 IU/ml IL2 and 50 ng/ml OKT3 (MuromonAB-CD3) for two days.
CPP/CAS9 complexes were formed by mixing the CAS9 mRNA (0.5 μg) with CPP at a 20:1 molar ratio of CPP:CAS9 mRNA and incubating for 30 min at 37° C. prior to cell transfection. CPP/CAS9-expressing plasmid complexes were formed by mixing the CAS9-expressing plasmid (Addgene MLM3639-Plasmid #42252) (0.5 μg) with CPP at a 20:1 molar ratio of CPP:plasmid and incubating for 30 min at 37° C. prior to cell transfection.
Cells were transfected according to the protocol for suspension cells described in Example 13a. RNAiMAX and lipofectamine 2000 lipid-based delivery methods (Invitrogen Thermo Fisher France) were used as controls, and transfections were performed following the manufacturer's instructions. CAS9 protein expression level was analyzed at multiple time points over a period of 10 days as determine by ELISA on protein extracts using antibodies against CRISPR/Cas9 obtained from Diagenode (Diagenode cat. No. C15200223) and ABCAM (clone 7A9-ab191468).

[1] = system: HPRT gene in mouse muscle myoblast cells (C2C12); assay: HPRT gene editing in C2C12 myoblasts (T7E1 assay); type: cell-based
Experimental: (§1) […] Delivery by RNAiMAX was included as a positive control.
(§2) CAS9-induced NHEJ was analyzed 72 hours after transfection by PCR (FIG. 26) and T7E1 assay (FIG. 27). The deletion (indel) frequencies in the HPRT gene were quantified using a T7E1 assay by quantifying the amount of uncut vs cut DNA using a Fragment Analyzer System. Data for on-target mutations induced by RGEN/gRNA are reported as an average of 3 separate experiments
(§3) The cell line was maintained in 5% CO2 at 37° C. and cell viability was assessed by the Trypan Blue exclusion test. To induce myogenic differentiation, at about 80% cell confluence the medium containing 10% fetal calf serum was substituted with medium containing 1% fetal calf serum. The cells were transfected at the undifferentiated stage or at day 7 after differentiation.

[2] = system: hPD1 gene in human T cells; assay: Simultaneous delivery of CAR plasmid and CAS9/gRNA: hPD1 editing (T7E1); type: cell-based; settings: for mean indel frequency: two donors
Experimental: Cells were incubated for 5 min, then 300 μl of serum free RPMI-1640 medium was added. After 30 min, 1.2 mL of full medium was added and serum level was adjusted to 10%. As control, CAS9 loaded with gRNA targeting GFP was used. For comparison with electroporation methods, cells were transfected with the anti-CD-19 CAR plasmid (5 μg) and gRNA/CAS9 (5 μg/10 μg) using Nucleofector 2b (Lonza, Germany) with the Amaxa Human T cells Nucleofector Kit, VPA-1002 (Lonza, Germany).
On day 5, the level of transduced and untransduced cells was analyzed, and cells were transferred to fresh T cell expansion medium. The cultures were analyzed for viability and anti-CD19 CAR expression by flow cytometry. The expression of the anti-CD19 CAR in the T cells was evaluated by flow cytometry using a Protein L assay. […] 7-AAD (Sigma) was used to determine viability. CAS9-induced double-strand break followed by repair through NHEJ system was analyzed by either the T7E1 assay or using the Genome Cleavage Detection kit (GCD Thermo Fisher) and quantified using Fragment Analyzer System. The indel frequency in the target gene was quantified using the T7E1 assay. The cultures were expanded and analyzed for viability, anti-CD19 expression and PD I level every 10 days. T cell expansion medium contained AIM V medium, supplemented with 5% heat-inactivated human AB Serum, 1% Gluta-Max, and 300 IU/mL IL-2.

[3] = system: U2OS and HEPG2 cell lines and primary human fibroblasts; assay: CAS9 protein expression after CPP delivery of CAS9-expressing plasmid (ELISA); type: cell-based; settings: U2OS, HEPG2, primary human fibroblasts; day 6; plasmid 0.5 μg
Experimental: CPP/plasmid complexes were prepared by mixing 0.5 μg of a CAS9-expressing plasmid (Addgene MLM3639-Plasmid #42252) with CPP at a 20:1 molar ratio of CPP:cargo and incubating for 30 min at 37° C. prior to cell transfection. Cells were transfected according to the protocols for adherent and suspension cells described in Example 13a. Lipofectamine 2000 was used as lipid-based delivery control. CAS9 protein expression level was analyzed at multiple time points over a period of 10 days as determined by ELISA on protein extracts using antibodies against CRISPR/Cas9 obtained from Diagenode (Diagenode cat. No. C15200223) and ABCAM (clone 7A9-ab191468).

Swiss mice = settings: CAS9 protein 5 μg/VEPEP-3a 20:1; single i.v.; 12-72 hr
Experimental: Free CAS9 protein in physiological buffer was injected as a negative control, and administration of LPS was used as a positive control for cytokine activation. […] Serum cytokine levels were measured using The Cytokine Mouse Magnetic 20-Plex Panel from Invritrogen (LMC 0006M).

[4] = system: U2OS, HEPG2, K562 cells and primary human fibroblasts; assay: CAS9 protein expression after CPP delivery of CAS9 mRNA (ELISA); type: cell-based; settings: day 3; cell types not specified
Experimental: CPP/CAS9 mRNA complexes were formed by mixing the CAS9 mRNA (0.5 μg) with CPP at a 20:1 molar ratio of CPP:CAS9 mRNA and incubating for 30 min at 37° C. prior to cell transfection. Cells were transfected according to optimized protocols for either adherent or suspension cell lines.
Human primary fibroblasts were freshly obtained and grown in flasks pre-coated with a gelatin-based coating solution and incubated in Culture Complete Growth Medium for 3 days before expansion and treatment. U2OS cells were cultured in Dulbecco's Modified Eagle's Medium (DMEM), supplemented with 2 mM glutamine, 1% antibiotics (streptomycin 10,000 μg/mL, penicillin, 10,000 IU/mL) and 10% (w/v) foetal calf serum (FCS), at 37° C. in a humidified atmosphere containing 5% CO2. 35 mm dishes seeded with 150,000 cells the day prior to transfection were grown to 50-60% confluence and set up to be at about 70% confluences at the time of transfection. Before transfection, cells were washed with DMEM (2×) followed by PBS (1×). Cells were then overlaid with 0.2 ml of complex solution (16 μl CPP/Cargo complex in water+184 μl OPTiMEM without antibiotics), mixed gently, and incubated for 10 min at 37° C. 0.8 mL of fresh OPTiMEM or DMEM was then added and cells were incubated for 20 min at 37° C. 2 mL of complete OPTiMEM (high glucose) or DMEM containing 11.4% FCS was then added in order to reach a final FCS concentration of 10%, without removing the overlay of CPP/Cargo complexes. Cells were returned to the incubator (37° C., 5% CO2) and assayed at 72 hours post transfection.
K562 and HEpG2 cells were set up to be at about 70% confluence at the time of transfection. The cells were maintained in high glucose DMEM media with 10% serum. Before transfection, cells were harvested by centrifugation, then washed with DMEM (2×) followed by PBS (1×). Cells were then resuspended in 0.2 ml of complex solution (16 μl CPP/Cargo complex in water+184 μl OPTiMEM without antibiotics), mixed gently, and incubated for 10 min at 37° C. 0.8 mL of fresh OPTiMEM was then added and cells were incubated for 20 min at 37° C. 2 mL of complete OPTiMEM (high glucose) containing 11.4% FCS was then added in order to reach a final FCS concentration of 10%, without removing the overlay of CPP/Cargo complexes. Cells were returned to the incubator (37° C., 5% CO2) and assayed at 72 hours post transfection.
RNAiMAX lipid-based delivery (Invitrogen Thermo Fisher France) was used as a control and transfections were performed following the manufacturer's instructions. CAS9 expression level was analyzed at multiple time points over a period of 10 days as determined by ELISA on protein extracts using antibodies against CRISPR/Cas9 obtained from Diagenode (Diagenode cat. No. C15200223) and ABCAM (clone 7A9-ab191468).

[5] = Particle size, polydispersity and zeta potential with different cargoes (Zetasizer NANO ZS P); type: physicochemical; settings: 20:1
Experimental: The CPP/CAS9-protein, CPP/CAS9-protein/sgRNA, CPP/CAS9-mRNA, CPP/CAS-mRNA/sgRNA particles were characterized; the mean size, polydispersity, and zeta potential were measured with a Zetasizer NANO ZS P apparatus (Malvern Ltd).
The mean size and the polydispersity of the CCP/cargo complexes were determined at 25° C. for 5 min per measurement and zeta potential was measured with a Zetasizer NANO ZS P apparatus (Malvern Ltd).

[6] = system: hPD1 gene in human T cells; assay: hPD1 gene editing in primary human T cells (T7E1 assay); type: cell-based
Experimental: T cells were isolated from PBMCs (2 different donors) using anti-CD3/anti-CD28 antibodies bound to paramagnetic beads (Dynabeads ClinExVivo CD3/CD28, Invitrogen) at a ratio of 3:1 (beads:cells). The cells and beads were co-incubated for 2 hours at room temperature and CD3′ cell enrichment was performed using Dynal ClinExVIVO MPC magnet (Thermo Fisher). The anti-CD3/anti-CD28 paramagnetic beads were removed, washed and concentrated. Cells in the CD3′ fraction were resuspended in activation media at a concentration of 1×10^6 cells/ml with AIM-V medium (Thermo Fishers) supplemented with 10% fetal calf serum, 300 IU/ml IL2 and 50 ng/ml OKT3 (MuromonAB-CD3) for two days.
Cells were transfected by electroporation with CD-19 plasmid or gRNA/CAS9 (5 μg/10 μg) using a Nucleofector 2b (Lonza, Germany) with the Amaxa Human T cells Nucleofector Kit, VPA-1002 (Lonza, Germany). 5×10^6 cells were washed twice with DPBS by centrifuging at 800 rpm for 5 minutes and resuspended in 100 ^l transfection buffer, and then transferred into the electroporation cuvette. An optimized program selected for both high transfection and high efficiency on T cells was used. After electroporation, cells were resuspended in 500 ^l pre-warmed AIM-V medium containing 10% FBS and incubated at 37° C. in 5% CO2. The transfection efficiency was evaluated after 48 hr by flow cytometry or T7E1 assay.
As control, CAS9 loaded with gRNA targeting GFP was used.
Cells were returned to the incubator for 72 hours. CAS9-induced double-strand break followed by repair through non-homologous end joining (NHEJ) was analyzed by either the T7E1 assay or using the Genome Cleavage Detection kit (GCD Thermo Fisher) and quantified using Fragment Analyzer System. The indel frequency in the target gene was quantified using the T7E1 assay. The cultures were expanded and analyzed for viability and PD1 levels every 10 days. T cell expansion medium contained AIM V medium, supplemented with 5% heat-inactivated human AB Serum, 1% Gluta-Max, and 300 IU/mL IL-2.

JURKAT and K562 cells = assay: Toxicity of CPP/CAS9/gRNA complexes in T cell lines (MTT assay); type: cell-based, human; settings: up to 100 nM, 24 h
Experimental: A total of 30,000 JURKAT or K562 cells seeded in 24-well plates the day prior to transfection were incubated with increasing concentrations of CPP/CAS9/gRNA complexed at 20:1 molar ratio (CPP to CAS9/gRNA) ranging from 1 nM to 200 nM for 30 min prior to addition of medium to reach a final 10% concentration of FCS. Cytotoxic response was measured 24 hours later by colorimetric MTT assay (Sigma, Germany). For MTT assay, cell culture medium was removed and replaced with PBS containing 2.5 mg/ml of MTT for 4 hours. Results correspond to the average of 3 independent experiments.

[7] = system: endogenous hPD1 gene in JURKAT and K562 cells; assay: hPD1 gene editing in T cell lines (T7E1 assay); type: cell-based, human
Experimental: CAS9 protein was preloaded with purified sgRNA at a molar ratio of 1:1 and incubated for 10 min prior to forming complexes with peptides.
5×10^6 cells were washed twice with DPBS by centrifuging at 800 rpm for 5 minutes and resuspended in 100 ^l transfection buffer, and then transferred into the electroporation cuvette. An optimized program selected for both high transfection and high efficiency on T cells was used. After electroporation, cells were resuspended in 500 ^l pre-warmed AIM-V medium containing 10% FBS and incubated at 37° C. in 5% CO2. The transfection efficiency was evaluated after 48 hr by flow cytometry or T7E1 assay.
RNAiMAX delivery method was used as positive control. Cells were either resuspended in or overlaid with 100 μl of preformed complexes, incubated for 3-5 min, and then 300 μl of DMEM was added. […] The indel frequency in the hPD1 gene was quantified using the T7E1 assay.

[8] = system: E-Catenin gene in mouse muscle myoblast cells (C2C12); assay: ü-Catenin gene disruption in C2C12 myoblasts (PCR gel); type: cell-based; settings: undifferentiated and differentiated C2C12
Experimental: Cells were transfected with CAS9/gRNA (2.5 μM/5 μM) complexes associated with CPP (+) or not (−) at a molar ratio of 20:1 (peptide to complex) and compared to delivery by RNAiMAX for E-Catenin expression. ü-actin expression was included as a loading control.
as §1, §2, §3

[9] = Donor 1, CAS9/sgRNA 2.5 μg/5 μg
[10] = Donor 2, CAS9/sgRNA 2.5 μg/5 μg

Experimental for Primary T cells: The toxicity of CPP/CAS9/gRNA complexes was investigated in the two cell lines (JURKAT and K562) and in PBMC-isolated T cells. Cell viability was determined using either MTT assay or 7-AAD.
Data were normalized to untransfected cells and compared to T cells incubated with free CAS9/gRNA.

N=C(N)NCCC[C@H](NC(=O)[C@H](CCCNC(=N)N)NC(=O)[C@H](CCCCN)NC(=O)[C@H](CCCNC(=N)N)NC(=O)[C@@H]1CCCN1C(=O)[C@H](Cc1c[nH]c2ccccc12)NC(=O)[C@H](CCC(=O)O)NC(=O)[C@H](CCCNC(=N)N)NC(=O)[C@H](Cc1ccccc1)NC(=O)[C@H](Cc1c[nH]c2ccccc12)NC(=O)[C@H](CCCNC(=N)N)NC(=O)[C@H](CCC(=O)O)NC(=O)[C@H](Cc1ccccc1)NC(=O)[C@H](Cc1c[nH]c2ccccc12)NC(=O)[C@H](CCCCN)NC(=O)CCN)C(=O)O [VEPEP-3a]
ELISA signal for CAS9 protein expression (primary human T cells; CAS9-expressing plasmid 0.5 μg): little to no CAS9 expression
ELISA signal for CAS9 protein expression (primary human T cells; CAS9 mRNA 0.5 μg): little to no CAS9 expression
mean indel frequency ([1]; differentiated C2C12): 73%
mean indel frequency ([1]; undifferentiated C2C12, 5 μg/10 μg CAS9/gRNA, 20:1): 81%
Mean indel Frequency ± s.e.m [2, 9]: 51 ± 5%
Mean indel Frequency ± s.e.m ([2]; Donor 1, CAS9/sgRNA 5 μg/10 μg): 57 ± 2%
Mean indel Frequency ± s.e.m [2, 10]: 53 ± 5%
Mean indel Frequency ± s.e.m ([2]; Donor 2, CAS9/sgRNA 5 μg/10 μg): 58 ± 8%
mean indel frequency ([2]; 2.5 μg/5 μg CAS9/gRNA): approximately 50%
mean indel frequency ([2]; 5 μg/10 μg CAS9/gRNA): ~57%
ELISA signal for CAS9 protein expression [3]: little to no increase
non-specific cytokine induction (Swiss mice): little to no impact
average viability (Primary T cells): ≥ 80%
ELISA signal for CAS9 protein expression [4]: little to no increase
formation of stable nanoparticles ([5]; with CAS9-protein and CAS9-protein/gRNA complex): able to form stable nanoparticles
Mean diameter ([5]; with CAS9-protein and CAS9-protein/gRNA): about 60 nm
Mean indel Frequency ± s.e.m [6, 9]: 62 ± 5%
Mean indel Frequency ± s.e.m ([6]; Donor 1, CAS9/sgRNA 5 μg/10 μg): 65 ± 5%
Mean indel Frequency ± s.e.m [6, 10]: 67 ± 8%
Mean indel Frequency ± s.e.m ([6]; Donor 2, CAS9/sgRNA 5 μg/10 μg): 70 ± 5%
mean indel frequency of hPD1 gene ([6]; T cells from the two donors, 5 μg/10 μg CAS9/gRNA): 66%
toxicity (JURKAT and K562 cells): no toxicity
Mean indel Frequency ± s.e.m ([7]; JURKAT, CAS9/sgRNA 2.5 μg/5 μg): 72 ± 5%
Mean indel Frequency ± s.e.m ([7]; JURKAT, CAS9/sgRNA 5 μg/10 μg): 78% and 78 ± 7%
Mean indel Frequency ± s.e.m ([7]; K562, CAS9/sgRNA 2.5 μg/5 μg): 71 ± 6%
Mean indel Frequency ± s.e.m ([7]; K562, CAS9/sgRNA 5 μg/10 μg): 75% and 75 ± 6%
editing of ü-Catenin and HPRT genes [8]: robust editing
